Experimental data from PubChem BioAssay (NCI).
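Protocol summary: plate cells (96-well), add compound at 5 concentrations, incubate 48 h, interpolate endpoints linearly. GI50 marks 50% less growth. TGI denotes the concentration required for complete inhibition of growth.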

Key:
Assay in all cases: NCI tumour cell line growth inhibition, 48 h
HT29 colon = system: HT29 colon
COLO 205 colon = system: COLO 205 colon
NCI-H226 lung = system: NCI-H226 lung
SK-MEL-28 melanoma = system: SK-MEL-28 melanoma
LXFL 529 NSCLC = system: LXFL 529 NSCLC
SF-295 CNS = system: SF-295 CNS
TK-10 renal = system: TK-10 renal
HL-60(TB) leukemia = system: HL-60(TB) leukemia
786-0 renal = system: 786-0 renal
M14 melanoma = system: M14 melanoma
DMS 273 small cell lung = system: DMS 273 small cell lung
MOLT-4 leukemia = system: MOLT-4 leukemia
OVCAR-4 ovarian = system: OVCAR-4 ovarian
OVCAR-5 ovarian = system: OVCAR-5 ovarian
HCT-15 colon = system: HCT-15 colon
K-562 leukemia = system: K-562 leukemia
OVCAR-3 ovarian = system: OVCAR-3 ovarian
OVCAR-8 ovarian = system: OVCAR-8 ovarian
IGROV1 ovarian = system: IGROV1 ovarian
CCRF-CEM leukemia = system: CCRF-CEM leukemia
UO-31 renal = system: UO-31 renal
SF-539 CNS = system: SF-539 CNS
NCI-H460 lung = system: NCI-H460 lung
SK-MEL-2 melanoma = system: SK-MEL-2 melanoma
SNB-78 CNS = system: SNB-78 CNS
KM12 colon = system: KM12 colon
ACHN renal = system: ACHN renal
SK-OV-3 ovarian = system: SK-OV-3 ovarian
SNB-75 CNS = system: SNB-75 CNS
MALME-3M melanoma = system: MALME-3M melanoma
SN12C renal = system: SN12C renal
NCI-H23 lung = system: NCI-H23 lung
HOP-18 NSCLC = system: HOP-18 NSCLC
XF 498 CNS = system: XF 498 CNS
UACC-257 melanoma = system: UACC-257 melanoma
M19-MEL melanoma = system: M19-MEL melanoma
HOP-92 NSCLC = system: HOP-92 NSCLC
HCC-2998 colon = system: HCC-2998 colon
U251 CNS = system: U251 CNS
DLD-1 colon = system: DLD-1 colon
RPMI-8226 leukemia = system: RPMI-8226 leukemia
SF-268 CNS = system: SF-268 CNS
A549 NSCLC = system: A549 NSCLC
HCT-116 colon = system: HCT-116 colon
UACC-62 melanoma = system: UACC-62 melanoma
EKVX NSCLC = system: EKVX NSCLC
NCI-H522 lung = system: NCI-H522 lung
SK-MEL-5 melanoma = system: SK-MEL-5 melanoma
A498 renal = system: A498 renal
SW-620 colon = system: SW-620 colon
SNB-19 CNS = system: SNB-19 CNS
KM20L2 colon = system: KM20L2 colon
CAKI-1 renal = system: CAKI-1 renal
SR leukemia = system: SR leukemia
LOX IMVI melanoma = system: LOX IMVI melanoma
RXF 393 renal = system: RXF 393 renal
HOP-62 NSCLC = system: HOP-62 NSCLC

`CSC1(C)CC2C(CC1N1CCCCC1)C2(C)C` (stereo unspecified) was tested, and the TGI (HT29 colon) was > 100 µM, the TGI (COLO 205 colon) was > 100 µM and the TGI (NCI-H226 lung) was > 100 µM. For the same compound, the TGI (SK-MEL-28 melanoma) was > 100 µM, the TGI (LXFL 529 NSCLC) was > 100 µM and the TGI (SF-295 CNS) was > 100 µM. For the same compound, the TGI (TK-10 renal) was > 100 µM, the TGI (HL-60(TB) leukemia) was > 100 µM and the TGI (786-0 renal) was > 100 µM. For the same compound, the TGI (M14 melanoma) was > 100 µM, the TGI (DMS 273 small cell lung) was > 100 µM and the TGI (MOLT-4 leukemia) was > 100 µM. For the same compound, the TGI (OVCAR-4 ovarian) was > 100 µM, the TGI (OVCAR-5 ovarian) was > 100 µM and the TGI (HCT-15 colon) was > 100 µM. The TGI (K-562 leukemia) was > 100 µM, the TGI (OVCAR-3 ovarian) was > 100 µM and the TGI (OVCAR-8 ovarian) was > 100 µM. For the same compound, the TGI (IGROV1 ovarian) was > 100 µM, the TGI (CCRF-CEM leukemia) was > 100 µM and the TGI (UO-31 renal) was > 100 µM. For the same compound, the TGI (SF-539 CNS) was > 100 µM, the TGI (NCI-H460 lung) was > 100 µM and the TGI (SK-MEL-2 melanoma) was > 100 µM. The TGI (SNB-78 CNS) was > 100 µM, the TGI (KM12 colon) was > 100 µM and the TGI (ACHN renal) was > 100 µM. The TGI (SK-OV-3 ovarian) was > 100 µM, the TGI (SNB-75 CNS) was > 100 µM and the TGI (MALME-3M melanoma) was > 100 µM. For the same compound, the TGI (SN12C renal) was > 100 µM, the TGI (NCI-H23 lung) was > 100 µM and the TGI (HOP-18 NSCLC) was > 100 µM. The TGI (XF 498 CNS) was > 100 µM, the TGI (UACC-257 melanoma) was > 100 µM and the TGI (M19-MEL melanoma) was > 100 µM. The TGI (HOP-92 NSCLC) was > 100 µM, the TGI (HCC-2998 colon) was > 100 µM and the TGI (U251 CNS) was > 100 µM. The TGI (DLD-1 colon) was > 100 µM, the TGI (RPMI-8226 leukemia) was > 100 µM and the TGI (SF-268 CNS) was > 100 µM. For the same compound, the TGI (A549 NSCLC) was > 100 µM and the TGI (HCT-116 colon) was > 100 µM.
In the case of `O=C([O-])c1ccc2c(c1)-c1nc-2nc2[n-]c(nc3nc(nc4[n-]c(n1)c1ccc(C(=O)[O-])cc41)-c1ccc(C(=O)[O-])cc1-3)c1ccc(C(=O)[O-])cc21.[Gd+3].[K+]`, the GI50 (HT29 colon) is reported as > 83.1 µM, the TGI (HT29 colon) is reported as > 100 µM and the GI50 (COLO 205 colon) is reported as > 38.9 µM. For the same compound, the TGI (COLO 205 colon) was > 55.2 µM, the GI50 (NCI-H226 lung) was > 100 µM and the TGI (NCI-H226 lung) was > 100 µM. The GI50 (SK-MEL-28 melanoma) was > 100 µM, the TGI (SK-MEL-28 melanoma) was > 100 µM and the GI50 (LXFL 529 NSCLC) was > 57.1 µM. For the same compound, the TGI (LXFL 529 NSCLC) was > 100 µM, the GI50 (UACC-62 melanoma) was 99.7 µM and the TGI (UACC-62 melanoma) was > 100 µM. The GI50 (SF-295 CNS) was > 100 µM, the TGI (SF-295 CNS) was > 100 µM and the GI50 (TK-10 renal) was > 100 µM. For the same compound, the TGI (TK-10 renal) was > 100 µM, the GI50 (HL-60(TB) leukemia) was > 38.5 µM and the TGI (HL-60(TB) leukemia) was > 54.5 µM. For the same compound, the GI50 (786-0 renal) was 18 µM, the TGI (786-0 renal) was 40.9 µM and the GI50 (M14 melanoma) was > 65.1 µM. The TGI (M14 melanoma) was > 100 µM, the GI50 (DMS 273 small cell lung) was 16.6 µM and the TGI (DMS 273 small cell lung) was 36.1 µM. For the same compound, the GI50 (MOLT-4 leukemia) was > 49 µM, the TGI (MOLT-4 leukemia) was > 100 µM and the GI50 (OVCAR-4 ovarian) was > 46.7 µM. For the same compound, the TGI (OVCAR-4 ovarian) was > 71.7 µM, the GI50 (EKVX NSCLC) was > 100 µM and the TGI (EKVX NSCLC) was > 100 µM. The GI50 (OVCAR-5 ovarian) was > 100 µM, the TGI (OVCAR-5 ovarian) was > 100 µM and the GI50 (HCT-15 colon) was > 42.6 µM. The TGI (HCT-15 colon) was > 64.3 µM, the GI50 (K-562 leukemia) was > 38.9 µM and the TGI (K-562 leukemia) was > 56.8 µM. The GI50 (OVCAR-3 ovarian) was > 100 µM, the TGI (OVCAR-3 ovarian) was > 100 µM and the GI50 (NCI-H522 lung) was > 100 µM. For the same compound, the TGI (NCI-H522 lung) was > 100 µM, the GI50 (OVCAR-8 ovarian) was > 100 µM and the TGI (OVCAR-8 ovarian) was > 100 µM. For the same compound, the GI50 (IGROV1 ovarian) was > 100 µM, the TGI (IGROV1 ovarian) was > 100 µM and the GI50 (CCRF-CEM leukemia) was > 36.5 µM. For the same compound, the TGI (CCRF-CEM leukemia) was > 54.2 µM, the GI50 (SK-MEL-5 melanoma) was > 100 µM and the TGI (SK-MEL-5 melanoma) was > 100 µM. The GI50 (A498 renal) was > 100 µM, the TGI (A498 renal) was > 100 µM and the GI50 (UO-31 renal) was > 100 µM. For the same compound, the TGI (UO-31 renal) was > 100 µM, the GI50 (SF-539 CNS) was > 46.5 µM and the TGI (SF-539 CNS) was > 69 µM. The GI50 (NCI-H460 lung) was > 100 µM, the TGI (NCI-H460 lung) was > 100 µM and the GI50 (SK-MEL-2 melanoma) was > 100 µM. The TGI (SK-MEL-2 melanoma) was > 100 µM, the GI50 (SNB-78 CNS) was > 100 µM and the TGI (SNB-78 CNS) was > 100 µM. For the same compound, the GI50 (KM12 colon) was 19.1 µM, the TGI (KM12 colon) was 34.6 µM and the GI50 (SW-620 colon) was > 22.8 µM. For the same compound, the TGI (SW-620 colon) was > 50.9 µM, the GI50 (ACHN renal) was > 100 µM and the TGI (ACHN renal) was > 100 µM. The GI50 (SK-OV-3 ovarian) was > 100 µM, the TGI (SK-OV-3 ovarian) was > 100 µM and the GI50 (SNB-19 CNS) was > 100 µM. The TGI (SNB-19 CNS) was > 100 µM, the GI50 (SNB-75 CNS) was > 100 µM and the TGI (SNB-75 CNS) was > 100 µM. For the same compound, the GI50 (MALME-3M melanoma) was > 100 µM, the TGI (MALME-3M melanoma) was > 100 µM and the GI50 (KM20L2 colon) was > 58.8 µM. The TGI (KM20L2 colon) was > 100 µM, the GI50 (SN12C renal) was > 72.7 µM and the TGI (SN12C renal) was > 100 µM. For the same compound, the GI50 (CAKI-1 renal) was > 100 µM, the TGI (CAKI-1 renal) was > 100 µM and the GI50 (NCI-H23 lung) was > 100 µM. The TGI (NCI-H23 lung) was > 100 µM, the GI50 (HOP-18 NSCLC) was > 100 µM and the TGI (HOP-18 NSCLC) was > 100 µM. The GI50 (XF 498 CNS) was > 100 µM, the TGI (XF 498 CNS) was > 100 µM and the GI50 (UACC-257 melanoma) was > 100 µM. For the same compound, the TGI (UACC-257 melanoma) was > 100 µM, the GI50 (SR leukemia) was 30.6 µM and the TGI (SR leukemia) was 53.9 µM. The GI50 (HOP-92 NSCLC) was > 100 µM, the TGI (HOP-92 NSCLC) was > 100 µM and the GI50 (HCC-2998 colon) was > 100 µM. The TGI (HCC-2998 colon) was > 100 µM, the GI50 (LOX IMVI melanoma) was 16.6 µM and the TGI (LOX IMVI melanoma) was 45.7 µM. The GI50 (U251 CNS) was > 57 µM, the TGI (U251 CNS) was > 100 µM and the GI50 (RXF 393 renal) was > 100 µM. For the same compound, the TGI (RXF 393 renal) was > 100 µM, the GI50 (DLD-1 colon) was > 53.2 µM and the TGI (DLD-1 colon) was > 94 µM. The GI50 (RPMI-8226 leukemia) was > 47.2 µM, the TGI (RPMI-8226 leukemia) was > 66 µM and the GI50 (SF-268 CNS) was > 64.1 µM. The TGI (SF-268 CNS) was > 100 µM, the GI50 (A549 NSCLC) was > 100 µM and the TGI (A549 NSCLC) was > 100 µM. The GI50 (HCT-116 colon) was > 40.1 µM, the TGI (HCT-116 colon) was > 56.6 µM and the GI50 (HOP-62 NSCLC) was > 100 µM. The TGI (HOP-62 NSCLC) was > 100 µM.
